For 1 molecule, concentration results are on record in patent US11311483B2, “Curcumin solubilisate” (AQUANOVA AG, priority 2012, dated 2022).

This series is described as follows: human study: plasma curcumin after a single oral dose of 500 mg curcumin. The format is in vivo. Particulars: 24 healthy persons, read-out: curcumin concentration in blood plasma. The protocol:
The solubilisate according to the invention is further characterized in that the total curcuminoid concentration in human blood plasma, measured one hour after oral administration of 500 mg curcumin in the form of the solubilisate, is approximately 500 ng curcuminoid per ml plasma±100 ng curcuminoid per ml plasma. In contrast, when native curcumin is taken orally in powdered form, only approximately 1.3 ng curcuminoid per ml plasma is achieved after one hour.
The human study on which these values are based was conducted on 24 healthy persons between 19 and 29 years of age, who received a single oral dose of 500 mg native curcumin or curcumin in the form of the solubilisate according to the invention. Blood samples were withdrawn at various times over a period of 24 hours after the curcumin was taken. To minimize the possible concurrent influence of digested food, the test subjects were served standardized meals. One hour after taking the curcumin in native form, less than 1 nmol/l plasma was measured; 8 hours after administration, 2.4 nmol/l was measured; and 24 hours after administration, 2.4 nmol/l was measured. In contrast, for curcumin from the solubilisate according to the invention, one hour after administration, 1,964 nmol/l was measured in the blood plasma; 8 hours after administration, 307.1 nmol/l was measured; and 24 hours after administration, 67.7 nmol/l was measured. A solubilisate containing […] curcumin was used (the commercial product “6% NovaSOL Curcumin” of the applicant).

In the case of `COc1cc(/C=C/C(=O)CC(=O)/C=C/c2ccc(O)c(OC)c2)ccc1O` [native curcumin, Curcumin], the concentration at 8 h (8 hours after single oral dose of 500 mg) is 2.4 nM. For the setting “24 hours after single oral dose of 500 mg”, the concentration at 24 h is 2.4 nM. The concentration at 1 h (one hour after single oral dose of 500 mg) is below 1 nM.
